Test results as given in publication PMC8286840, “Identifying SARS-CoV-2 antiviral compounds by screening for small molecule inhibitors of Nsp3 papain-like protease” (Biochemical Journal, 2021).
Where a name gives a salt, the structure may show the parent alone. Read-outs that look alike come from different tables or passages of the source.

Key:
[1] = molecular target: T1, SARS-CoV-2 PLpro (nsp3 1564–1878) (Severe acute respiratory syndrome coronavirus 2, UniProt P0DTD1); test: biochemical; design: FRET-quenched peptide (Pro3) cleavage by PLpro, 10 min pre-incubation, slope over 20 min, normalised to no-compound control; conditions: high concentration screen, read-out: % of control remaining
[2] = molecular target: T1, SARS-CoV-2 PLpro (nsp3 1564–1878); test: biochemical; design: FRET-quenched peptide (Pro3) cleavage by PLpro, 10 min pre-incubation, slope over 20 min, normalised to no-compound control; conditions: low concentration screen, read-out: % of control remaining

For `C#C[C@]1(O)CC[C@H]2[C@@H]3CCC4=CC(=O)CCC4=C3C=C[C@@]21CC` [Gestrinone], the remaining activity at 3.75 µM ([1]; Well no.=1792) was 99.3% and the remaining activity at 1.25 µM ([2]; Well no.=1792) was 101%.

`C/C=C1\C(=O)C[C@H]2[C@@H]3CCC4=CC(=O)CC[C@]4(C)[C@H]3CC[C@]12C` [Guggulsterone] gave a remaining activity at 3.75 µM ([1]; Well no.=6918) of 99.7% and a remaining activity at 1.25 µM ([2]; Well no.=6918) of 103%.

For `Cc1cc(OCCCS(C)(=O)=O)cc(C)c1-c1cccc(COc2ccc3c(c2)OC[C@H]3CC(=O)O)c1` [TAK-875], the remaining activity at 3.75 µM ([1]; Well no.=4966) was 91.6%, the remaining activity at 3.75 µM ([1]; Well no.=7771) was 103% and the remaining activity at 1.25 µM ([2]; Well no.=4966) was 96.6%. It also gave a remaining activity at 1.25 µM ([2]; Well no.=7771) of 107%.

In the case of `COCCCOc1ccnc(C[S+]([O-])c2nc3ccccc3[nH]2)c1C` (centres unmarked) [sodium 2-((4-(3-methoxypropoxy)-3-methylpyridin-2-yl)methylsulfinyl)benzo[d]imidazol-1-ide], the remaining activity at 3.75 µM ([1]; Well no.=6070) is reported as 93.7% and the remaining activity at 1.25 µM ([2]; Well no.=6070) is reported as 95.8%.

With `CCCCC[C@H](O)/C=C/[C@H]1C=CC(=O)[C@@H]1CCCCCCC(=O)O` [Prostaglandin A1] the remaining activity at 3.75 µM ([1]; Well no.=3086) was 101%, the remaining activity at 3.75 µM ([1]; Well no.=4235) was 94.9% and the remaining activity at 1.25 µM ([2]; Well no.=3086) was 99.1%. It also gave a remaining activity at 1.25 µM ([2]; Well no.=4235) of 89.4%.

`NCC(=O)N1C[C@H](NC(=O)c2ccccc2)C[C@H]1C(=O)O` [Danegaptide Hydrochloride] gave a remaining activity at 3.75 µM ([1]; Well no.=8026) of 100% and a remaining activity at 1.25 µM ([2]; Well no.=8026) of 98.8%.

With `CC(C)Cc1ccc([C@H](C)C(=O)O)cc1` [S(+)-Ibuprofen] the remaining activity at 3.75 µM ([1]; Well no.=825) was 105% and the remaining activity at 1.25 µM ([2]; Well no.=825) was 103%.

Compound `Cn1cnc(CCN)c1` [1-Methylhistamine dihydrochloride] has a remaining activity at 3.75 µM ([1]; Well no.=928) of 103% and a remaining activity at 1.25 µM ([2]; Well no.=928) of 101%.

`COc1ccc(CCCn2ncc3c2nc(N)n2nc(-c4ccco4)nc32)cc1` [SCH-442416] was tested, and the remaining activity at 3.75 µM ([1]; Well no.=5870) was 97.4% and the remaining activity at 1.25 µM ([2]; Well no.=5870) was 98.1%.

With `CCc1c2c(nc3ccc(OC(=O)N4CCC(N5CCCCC5)CC4)cc13)-c1cc3c(c(=O)n1C2)COC(=O)[C@]3(O)CC` [Irinotecan] the remaining activity at 3.75 µM ([1]; Well no.=5099) was 98.8% and the remaining activity at 1.25 µM ([2]; Well no.=5099) was 99.6%.

With `Cc1ccc2nc(CN(CCN(Cc3nc4ccc(C)cc4[nH]3)Cc3nc4ccc(C)cc4[nH]3)Cc3nc4ccc(C)cc4[nH]3)[nH]c2c1` [NSC348884] the remaining activity at 3.75 µM ([1]; Well no.=6442) was 98.1% and the remaining activity at 1.25 µM ([2]; Well no.=6442) was 105%.

In the case of `C[C@H](O)C(=O)O` [L-Lactic acid], the remaining activity at 3.75 µM ([1]; Well no.=7395) is reported as 106% and the remaining activity at 1.25 µM ([2]; Well no.=7395) is reported as 104%.

Compound `N#C[C@@H]1CCCN1C(=O)CNC12CC3CC(CC(O)(C3)C1)C2` [Vildagliptin (LAF-237)] has a remaining activity at 3.75 µM ([1]; Well no.=4885) of 99.9% and a remaining activity at 1.25 µM ([2]; Well no.=4885) of 99.1%.

For `CCCCC1OC(=O)C2=CCCCC21` (centres unmarked) [Sedanolide], the remaining activity at 3.75 µM ([1]; Well no.=3751) was 98.7% and the remaining activity at 1.25 µM ([2]; Well no.=3751) was 92.6%.

With `Cc1nc(N=Nc2cc(S(=O)(=O)O)c3cc([N+](=O)[O-])cc(S(=O)(=O)O)c3c2)c(COP(=O)(O)O)c(C=O)c1O` [PPNDS tetrasodium] the remaining activity at 3.75 µM ([1]; Well no.=1048) was 103% and the remaining activity at 1.25 µM ([2]; Well no.=1048) was 102%.

Work on `CCn1cc(C(=O)O)c(=O)c2ccc(C)nc21` [Nalidixic acid] yielded a remaining activity at 3.75 µM ([1]; Well no.=3256) of 99.3% and a remaining activity at 1.25 µM ([2]; Well no.=3256) of 99.8%.

With `CC(C)Cc1ccc([C@@H](C)C(=O)NS(C)(=O)=O)cc1` [Reparixin (L-lysine salt)] the remaining activity at 3.75 µM ([1]; Well no.=8059) was 99.6%, the remaining activity at 3.75 µM ([1]; Well no.=8125) was 104% and the remaining activity at 1.25 µM ([2]; Well no.=8059) was 100%. For the same compound, the remaining activity at 1.25 µM ([2]; Well no.=8125) was 104%.

Work on `CN(C/C=C/C#CC(C)(C)C)Cc1cccc2ccccc12` [Terbinafine] yielded a remaining activity at 3.75 µM ([1]; Well no.=1580) of 97.8% and a remaining activity at 1.25 µM ([2]; Well no.=1580) of 95%.

`c1c2c(cc3c1OCO3)-c1cc3ccc4c(c3c[n+]1CC2)OCO4` [Coptisine (chloride)] gave a remaining activity at 3.75 µM ([1]; Well no.=8071) of 101% and a remaining activity at 1.25 µM ([2]; Well no.=8071) of 106%.

With `COc1ccc(-c2ccc3c(N4CCOC[C@@H]4C)nc(N4CCOC[C@@H]4C)nc3n2)cc1CO` [AZD8055] the remaining activity at 3.75 µM ([1]; Well no.=5293) was 97.4% and the remaining activity at 1.25 µM ([2]; Well no.=5293) was 99.1%.

`C[C@@H]1O[C@@H](OC[C@H]2O[C@@H](Oc3c(-c4ccc(O)c(O)c4)oc4cc(O)cc(O)c4c3=O)[C@H](O)[C@@H](O)[C@@H]2O)[C@H](O)[C@H](O)[C@H]1O` [Rutin] showed a remaining activity at 3.75 µM ([1]; Well no.=3711) of 106% and a remaining activity at 1.25 µM ([2]; Well no.=3711) of 103%.

Compound `O=C1Cc2c([nH]c3ccc([N+](=O)[O-])cc23)-c2ccccc2N1` [Alsterpaullone] has a remaining activity at 3.75 µM ([1]; Well no.=255) of 106%, a remaining activity at 3.75 µM ([1]; Well no.=2314) of 105% and a remaining activity at 1.25 µM ([2]; Well no.=255) of 104%. It also gave a remaining activity at 1.25 µM ([2]; Well no.=2314) of 101%.

`O=C(NCCS(=O)(=O)c1ccc(C(F)(F)F)cn1)c1ccc(Cl)cc1` [GSK3787] gave a remaining activity at 3.75 µM ([1]; Well no.=5216) of 95.3% and a remaining activity at 1.25 µM ([2]; Well no.=5216) of 91.7%.

With `Nc1nc(O)c2ncn(CCC(CO)CO)c2n1` [Penciclovir] the remaining activity at 3.75 µM ([1]; Well no.=2099) was 98.9%, the remaining activity at 3.75 µM ([1]; Well no.=8002) was 102% and the remaining activity at 1.25 µM ([2]; Well no.=2099) was 97.6%. It also gave a remaining activity at 1.25 µM ([2]; Well no.=8002) of 105%.

Work on `Oc1c2ccccc2c2c3c(cccc13)N=N2` [SP 600125 - Anthra[1-9-cd]pyrazol-6(2H)-one] yielded a remaining activity at 3.75 µM ([1]; Well no.=2432) of 105% and a remaining activity at 1.25 µM ([2]; Well no.=2432) of 96.1%.

With `CCCCC/C=C\C/C=C\C/C=C\C/C=C\CCCC(=O)O` [Arachidonic acid] the remaining activity at 3.75 µM ([1]; Well no.=4301) was 101%, the remaining activity at 3.75 µM ([1]; Well no.=4446) was 97.5% and the remaining activity at 1.25 µM ([2]; Well no.=4301) was 104%. For the same compound, the remaining activity at 1.25 µM ([2]; Well no.=4446) was 95.8%.

Work on `CCc1nn(CCCN2CCN(c3cccc(Cl)c3)CC2)c(=O)n1CCOc1ccccc1` [Nefazodone (hydrochloride)] yielded a remaining activity at 3.75 µM ([1]; Well no.=6765) of 92.8% and a remaining activity at 1.25 µM ([2]; Well no.=6765) of 97.2%.

With `Nc1nccc2c1ncn2[C@@H]1O[C@H](CO)[C@@H](O)[C@H]1O` [3-Deazaadenosine (hydrochloride)] the remaining activity at 3.75 µM ([1]; Well no.=7808) was 92.6% and the remaining activity at 1.25 µM ([2]; Well no.=7808) was 96.7%.

For `Cc1noc(-c2ccc(-c3ccc(CC(=O)O)cc3)cc2)c1NC(=O)O[C@H](C)c1ccccc1` [AM095], the remaining activity at 3.75 µM ([1]; Well no.=7815) was 94% and the remaining activity at 1.25 µM ([2]; Well no.=7815) was 101%.

`CC(=O)NCC(=O)N1[C@@H]2CC[C@H]1c1ccc(Nc3ncc(C(F)(F)F)c(NC4CCC4)n3)cc12` [PF-03814735] showed a remaining activity at 3.75 µM ([1]; Well no.=4693) of 105% and a remaining activity at 1.25 µM ([2]; Well no.=4693) of 102%.

Work on `O=S(=O)(c1ccc2c(c1)C(=NO)c1cc(S(=O)(=O)N3CCCCC3)ccc1-2)N1CCCCC1` [CIL56] yielded a remaining activity at 3.75 µM ([1]; Well no.=6774) of 95.6% and a remaining activity at 1.25 µM ([2]; Well no.=6774) of 98.2%.
